Results: patent US4093715A, “5-Iodo-5'-amino-2',5'-dideoxycytidine and the pharmaceutically acceptable salts thereof” (priority 1977, dated 1978)

Experiments:
[1] = system: herpes simplex virus strain HSV-1 (prototype); experiment: Inhibition of herpes simplex virus replication (titre reduction by plaque assay) in infected Vero cells; format: cell-based, herpes simplex virus type 1
Method: The compounds of this invention manifest a high order to inhibition with various herpes simplex viruses. For example, when tested against strain HSV-1 (prototype) at a concentration of 400 μM the average log reduction in titre was 1.4.
(§1) Standard procedures were used to maintain the virus and the Vero cells. This included growth and titration by plaque assay as well as the replications of the virus in the presence of the test compounds. Cells were maintained and infected in Dulbecco's medium with 10% fetal calf serum.
For testing, the cells were infected with virus at a ratio of approximately 10 plaque forming units per cell. The viral inoculum was drained after one hour adsorption at 37° C. An appropriate volume of medium containing the compound for testing was added. After 36-48 hours at 37° C, the infected cells were frozen until ready for titration.

Vero cells = experiment: Cytotoxicity; format: cell-based
Text: as §1

[2] = cited from earlier work
newborn rats = conditions: systemic administration; cited from earlier work
pregnant rabbits = conditions: topically to the eye, doses similar to those used clinically in humans; cited from earlier work
mice = experiment: Acute toxicity in mice; format: in vivo; conditions: for lethality, acute toxicity: mice
Method: Acute toxicity of AIC in mice indicates no lethality at 200 mg/kg of body weight. However, at a level as high as 400 mg/kg the compound is lethal to mice.

[3] = system: experimental herpes simplex keratitis; experiment: Treatment of experimental herpes simplex keratitis in rabbits; format: in vivo; conditions: topical drops 4 mg/ml at 4 hour intervals for 72 hours starting 24 hours after infection, graded daily for 11 days
Method: One advantage of AIC has been established by the treatment of rabbits. In this study, experimental herpes simplex keratitis was established bilaterally in 16 rabbits. These were divided into 2 matched groups of 8. Each group was treated in a double blind fashion with topical drops at 4 hour intervals for 72 hours starting 24 hours after infection. The solutions administered were:
2. AIC, 4 mg/ml Each eye was examined daily for 11 days and graded by two ophthalmologists.

SMILES	antiviral activity (in words) ([1]; at relatively low levels)	cytotoxicity (Vero cells; at a concentration of 50 μM)	undesirable side effects ([2]; ocular use in herpes simplex keratitis)	cellular toxicity ([2]; therapy of herpes simplex keratitis)	teratogenicity (newborn rats)	teratogenicity (pregnant rabbits)	log reduction at 400 µM ([1]; Human alphaherpesvirus 1, HSV-1 (prototype), 400 μM, infected Vero cells, ~10 pfu per cell, 36-48 hours at 37° C)	cytotoxicity (Vero cells; at treatment levels as high as 1600 μM)	lethality, acute toxicity (mice; 200 mg/kg of body weight)	lethality, acute toxicity (mice; 400 mg/kg)	therapeutic index (in words) (mice; from acute toxicity in mice coupled with activity)	therapeutic effectiveness in herpes simplex keratitis [3]
O=c1[nH]c(=O)n([C@H]2C[C@H](O)[C@@H](CO)O2)cc1I [idoxuridine, 5-iodo-deoxy-uridine]	high order of activity	almost totally cytotoxic	follicular and papillary conjunctivitis, and epithelial punctate keratopathy	significant cellular toxicity	teratogenicity	teratogenicity	–	–	–	–	–	–
NC[C@H]1O[C@@H](n2cc(I)c(N)nc2=O)C[C@@H]1O [AIC, 5-Iodo-5'-amino-2',5'-dideoxycytidine]	–	–	–	–	–	–	1.4	No cytotoxicity is evident	no lethality	lethal	good therapeutic index	effective therapeutically
